Measured values taken from US10308916B2, “Omega-transaminase mutants with activity improvements toward ketones and methods for producing optically pure amines” (Industry-Academic Cooperation Foundation, Yonsei University, priority 2015, dated 2019).
Values joined by “and” are separate entries in the source; they are usually repeats but may differ in a detail not shown here. Identical values can stand only once. Like-named read-outs stand apart in the source and are kept apart here.

How the values were obtained:
Assay type in all cases: biochemical
OATA W58A [1] = tested on: OATA W58A
OATA W58L [2] = tested on: OATA W58L
OATA L57A/W58A/V154A [3] = tested on: OATA L57A/W58A/V154A
OATA W58A [4] = tested on: OATA W58A; remark: listed apart in the source
OATA L57A/W58A [5] = tested on: OATA L57A/W58A
OATA L57Q/W58N/I261L [6] = tested on: OATA L57Q/W58N/I261L
OATA W58L [7] = tested on: OATA W58L; remark: listed apart in the source
OATA W58D/I261A [8] = tested on: OATA W58D/I261A
OATA L57C/W58L/I261A [9] = tested on: OATA L57C/W58L/I261A
W58A mutant = tested on: W58A mutant
OATA L57A/W58A [10] = tested on: OATA L57A/W58A; remark: listed apart in the source
OATA W58A [11] = conditions: pH 7
OATA L57Q/W58N/I261L [12] = tested on: OATA L57Q/W58N/I261L; remark: listed apart in the source
OATA W58D/I261A [13] = tested on: OATA W58D/I261A; remark: listed apart in the source
[14] = tested on: OATA W58A, OATA W58M, OATA W58V and OATA W58I mutants
OATA L57A = tested on: OATA L57A
OATA W58L [15] = conditions: pH 7
OATA L57C/W58L/I261A [16] = tested on: OATA L57C/W58L/I261A; remark: listed apart in the source
OATA W58A [17] = tested on: OATA W58A; remark: listed apart in the source
OATA W58I = conditions: pH 7
OATA L57A/W58A/V154A [18] = tested on: OATA L57A/W58A/V154A; remark: listed apart in the source
OATA W58V = conditions: pH 7
OATA W58M = conditions: pH 7
OATA W58L [19] = tested on: OATA W58L; remark: listed apart in the source
OATA W58L [20] = tested on: OATA W58L; remark: listed apart in the source

CC(C)C(N)c1ccccc1 (racemic) [2-Methyl-1-phenylpropan-1-amine]
Relative reactivity, OATA W58A (OATA W58A [1]): 3% | Relative reactivity, OATA W58L (OATA W58L [2]): 2% | Relative activity, OATA L57A/W58A/V154A (OATA L57A/W58A/V154A [3]): 167% | relative activity to (S)-α-MBA measured with OATA WT, OATA W58A (OATA W58A [4]): 6% | Relative activity, OATA L57A/W58A (OATA L57A/W58A [5]): 12%

C[C@H](N)c1ccccc1 [(S)-α-methylbenzylamine]
Relative reactivity, OATA W58A (OATA W58A [1]): 100% | Relative activity, OATA L57Q/W58N/I261L (OATA L57Q/W58N/I261L [6]): 262% | Fold-increase in kcat/KM (OATA W58L [7]): 170 | fold decrease in KM (tighter binding) (OATA W58L [7]): 207 | Relative activity, OATA W58D/I261A (OATA W58D/I261A [8]): 17% | Relative reactivity, OATA W58L (OATA W58L [2]): 100% | Relative activity, OATA L57C/W58L/I261A (OATA L57C/W58L/I261A [9]): 900% | Relative activity, OATA L57A/W58A/V154A (OATA L57A/W58A/V154A [3]): 1,190%^ | Relative activity, OATA L57A/W58A (OATA L57A/W58A [5]): 621%

CCC[C@H](N)c1ccccc1 [(S)-α-propylbenzylamine]
Relative reactivity, OATA W58A (OATA W58A [1]): 10% | Relative reactivity, OATA W58L (OATA W58L [2]): 2% | Relative activity, OATA L57A/W58A/V154A (OATA L57A/W58A/V154A [3]): 749% | relative activity to (S)-α-MBA measured with OATA WT, OATA W58A (OATA W58A [4]): 20% | Relative activity, OATA L57A/W58A (OATA L57A/W58A [5]): 240%

NCc1ccccc1 [Benzylamine]
Relative reactivity, OATA W58A (OATA W58A [1]): 50% | Relative activity, OATA L57Q/W58N/I261L (OATA L57Q/W58N/I261L [6]): 123% | Relative activity, OATA W58D/I261A (OATA W58D/I261A [8]): 17% | Relative reactivity, OATA W58L (OATA W58L [2]): 49% | Relative activity, OATA L57C/W58L/I261A (OATA L57C/W58L/I261A [9]): 792%

CC(C)N [Isopropylamine]
Relative reactivity, OATA W58A (OATA W58A [1]): 28% | Relative activity, OATA L57Q/W58N/I261L (OATA L57Q/W58N/I261L [6]): 23% | Fold-increase in kcat/KM (OATA W58L [7]): 8.6 | fold decrease in KM (tighter binding) (OATA W58L [7]): 8.9 | Relative reactivity, OATA W58L (OATA W58L [2]): 72% | Relative activity, OATA L57C/W58L/I261A (OATA L57C/W58L/I261A [9]): 8%

CC(=O)c1ccccc1 [Ketone 1a, acetophenone]
fold increase in activity (W58A mutant): 41 | Relative activity, OATA L57A/W58A (OATA L57A/W58A [10]): 716% | Fold-increase in kcat/KM (OATA W58L [7]): 340 | fold decrease in KM (tighter binding) (OATA W58L [7]): 6.1 | fold increase in turnover number (kcat) (OATA W58L [7]): 55.7 | kcat relative to kcat of the wild-type enzyme for pyruvate (OATA W58L [7]): up to 20% | Relative activity to acetophenone, OATA W58A (OATA W58A [11]): 100% | Relative activity, OATA L57Q/W58N/I261L (OATA L57Q/W58N/I261L [12]): 2,500% | Relative activity, OATA W58D/I261A (OATA W58D/I261A [13]): 648% | fold increase in reactivity as compared to OATA WT [14]: more than 40 | Relative activity, OATA L57A (OATA L57A): 89% | Relative activity to acetophenone, OATA W58L (OATA W58L [15]): 100% | Relative activity, OATA L57C/W58L/I261A (OATA L57C/W58L/I261A [16]): 12,174% | Relative activity, OATA W58A (OATA W58A [17]): 1,206%^ | Relative activity to acetophenone, OATA W58I (OATA W58I): 100% | Relative activity, OATA L57A/W58A/V154A (OATA L57A/W58A/V154A [18]): 637% | Relative activity to acetophenone, OATA W58V (OATA W58V): 100% | Relative activity to acetophenone, OATA W58M (OATA W58M): 100%

CCCC(=O)c1ccccc1 [Ketone 1c, butyrophenone]
Relative activity, OATA L57A/W58A (OATA L57A/W58A [10]): 302% | fold increase in amination activity compared to OATA W58A (OATA L57A/W58A [10]): > 30 and 38 | Relative activity to acetophenone, OATA W58A (OATA W58A [11]): 8% | Relative activity, OATA L57A (OATA L57A): 1% | Relative activity to acetophenone, OATA W58L (OATA W58L [15]): >0.1%^ | Relative activity, OATA W58A (OATA W58A [17]): 8% | Relative activity to acetophenone, OATA W58I (OATA W58I): 11% | Relative activity, OATA L57A/W58A/V154A (OATA L57A/W58A/V154A [18]): 747% | Relative activity to acetophenone, OATA W58V (OATA W58V): 12% | Relative activity to acetophenone, OATA W58M (OATA W58M): 15%

CC(=O)CCc1ccccc1 [Ketone 1f, benzylacetone]
Conversion (%) OATAW58L (OATA W58L [19]): 93% | Conversion, preparative scale (OATA W58L [19]): 92% | Relative activity to acetophenone, OATA W58A (OATA W58A [11]): 219% | Relative activity, OATA L57A (OATA L57A): 439% | Relative activity to acetophenone, OATA W58L (OATA W58L [15]): 277% | Relative activity, OATA L57C/W58L/I261A (OATA L57C/W58L/I261A [16]): 6,330% | Relative activity to acetophenone, OATA W58I (OATA W58I): 125% | Relative activity to acetophenone, OATA W58V (OATA W58V): 193% | Relative activity to acetophenone, OATA W58M (OATA W58M): 178%

O=C1CCc2ccccc21 [Ketone 1g]
Fold-increase (OATA W58L [20]): >760

O=C1CCCc2ccccc21 [Ketone 1h]
Fold-increase (OATA W58L [20]): >210
